In patent publication US20040092561A1, “Azolidinone-vinyl fused -benzene derivatives” (priority 2002, published 2004) one finds inhibition and IC50 data, which are given here for four compounds.

Assay [1] relates to Akt/PKB phosphorylation in macrophages. Nature of the assay: Cell Based ELISA to Monitor PI3K Inhibition: Akt/PKB phosphorylation in Raw 264-7 macrophages after stimulation with C5a. The settings on record: Mus musculus, RAW264.7, 50 nM C5a, 5 minutes, 20 minutes pretreatment, read-out: inhibition of C5a-mediated AKT-phosphorylation. The protocol:
b) Cell Based ELISA to Monitor PI3K Inhibition
Measurement of Akt/PKB phosphorylation in macrophages after stimulation with C5a: Raw 264: Raw 264-7 macrophages (cultured in DMEM-F12 medium containing 10%
Fetal Calf serum and antibiotics) are plated at 20'000 cells/well in a 96 MTP 24 h before cell stimulation. Previous to the stimulation with 50 nM of Complement 5a during 5 minutes, Cells are serum starved for 2 h, and pretreated with inhibitors for 20 minutes. After stimulation cells are fixed in 4% formaldehyde for 20 minutes and washed 3 times in PBS containing 1% Triton X-100 (PBS/Triton). Endogenous peroxidase is blocked by a 20 minutes incubation in 0.6% H2O2 and 0.1% Sodium Azide in PBS/Triton and washed 3 times in PBS/Triton. Cells are then blocked by 60 minutes incubation with 10% fetal calf serum in PBS/Triton. Next, phosphorylated Akt/PKB is detected by an overnight incubation at 4° C. with first antibody (anti phospho Serine 473 Akt IHC, Cell Signaling) diluted 800-fold in PBS/Triton, containing 5% bovine serum albumin (BSA). After 3 washes in PBS/Triton, cells are incubated for 60 minutes with a peroxidase conjugated goat-anti-rabbit antibody ( 1/400 dilution in PBS/Triton, containing 5% BSA), washed 3 times in PBS/Triton, and 2 times in PBS and further incubated in 100 μl of substrate reagent solution (R&D) for 20 minutes. The reaction is stopped by addition of 50 μI of 1 M SO4H2 and absorbance is read at 450 nm.
The values indicated reflect the percentage of inhibition of AKT phoshorylation as compared to basal level. Said values show a clear effect of the azolidinone-vinyl fused-benzene compounds on the activation of AKT phosphorylation in macrophages.

Another assay concerns the target PI3Kγ (Homo sapiens, UniProt P48736). Put plainly: High Throughput PI3K Lipid Kinase Assay (Binding Assay), SPA with neomycin-coated beads. The assay is classed as biochemical. The settings on record: Human recombinant GST-PI3Kγ; [33P]γ-ATP; 180 minutes, room temperature. The protocol: a) High Throughput PI3K Lipid Kinase Assay (Binding Assay)
The assay combines the scintillation proximity assay technology (SPA, Amersham) with the capacity of neomycin (a polycationic antibiotic) to bind phospholipids with high affinity and specificity. The Scintillation Proximity Assay is based on the properties of weakly emitting isotopes (such as ^3H, ^125I, ^33P). Coating SPA beads with neomycin allows the detection of phosphorylated lipid substrates after incubation with recombinant PI3K and radioactive ATP in the same well, by capturing the radioactive phospholipids to the SPA beads through their specific binding to neomycin.
To a 384 wells MTP containing 5 μl of a chemical compound library (containing 6% DMSO), the following assay components are added. 1) 5 μl (58 ng) of Human recombinant GST-PI3Kγ (in Hepes 40 mM, pH 7.4, DTT 1 mM and ethylenglycol 5%) 2) 10 μl of lipid micelles and 3) 10 μl of Kinase buffer ([^33P]γ-ATP 45 μM/60 nCi, MgCl2 30 mM, DTT 1 mM, P-Glycerophosphate 1 mM, NaVO4 100 μM, Na Cholate 0.3%, in Hepes 40 mM, pH 7.4). After incubation at room temperature for 180 minutes, with gentle agitation, the reaction is stopped by addition of 60 μl of a solution containing 100 μg of neomycin-coated PVT SPA beads in PBS containing ATP 10 mM and EDTA 5 mM. The assay is further incubated at room temperature for 60 minutes with gentle agitation to allow binding of phospholipids to neomycin-SPA beads. After precipitation of the neomycin-coated PVT SPA beads for 5 minutes at 1500×g, radioactive PtdIns(3)P is quantified by scintillation counting in a Wallac MicroBeta™ plate counter.
The values indicated in respect of PI3K γ refer to the IC50 (μM), i.e. the amount necessary to achieve 50% inhibition of said target. Said values show a considerable potency of the azolidinone-vinyl fused-benzene compounds with regard to PI3Kγ.

pIC50: −log10 of the molar value.

PI3Kγ, sequence (P48736 whole entry): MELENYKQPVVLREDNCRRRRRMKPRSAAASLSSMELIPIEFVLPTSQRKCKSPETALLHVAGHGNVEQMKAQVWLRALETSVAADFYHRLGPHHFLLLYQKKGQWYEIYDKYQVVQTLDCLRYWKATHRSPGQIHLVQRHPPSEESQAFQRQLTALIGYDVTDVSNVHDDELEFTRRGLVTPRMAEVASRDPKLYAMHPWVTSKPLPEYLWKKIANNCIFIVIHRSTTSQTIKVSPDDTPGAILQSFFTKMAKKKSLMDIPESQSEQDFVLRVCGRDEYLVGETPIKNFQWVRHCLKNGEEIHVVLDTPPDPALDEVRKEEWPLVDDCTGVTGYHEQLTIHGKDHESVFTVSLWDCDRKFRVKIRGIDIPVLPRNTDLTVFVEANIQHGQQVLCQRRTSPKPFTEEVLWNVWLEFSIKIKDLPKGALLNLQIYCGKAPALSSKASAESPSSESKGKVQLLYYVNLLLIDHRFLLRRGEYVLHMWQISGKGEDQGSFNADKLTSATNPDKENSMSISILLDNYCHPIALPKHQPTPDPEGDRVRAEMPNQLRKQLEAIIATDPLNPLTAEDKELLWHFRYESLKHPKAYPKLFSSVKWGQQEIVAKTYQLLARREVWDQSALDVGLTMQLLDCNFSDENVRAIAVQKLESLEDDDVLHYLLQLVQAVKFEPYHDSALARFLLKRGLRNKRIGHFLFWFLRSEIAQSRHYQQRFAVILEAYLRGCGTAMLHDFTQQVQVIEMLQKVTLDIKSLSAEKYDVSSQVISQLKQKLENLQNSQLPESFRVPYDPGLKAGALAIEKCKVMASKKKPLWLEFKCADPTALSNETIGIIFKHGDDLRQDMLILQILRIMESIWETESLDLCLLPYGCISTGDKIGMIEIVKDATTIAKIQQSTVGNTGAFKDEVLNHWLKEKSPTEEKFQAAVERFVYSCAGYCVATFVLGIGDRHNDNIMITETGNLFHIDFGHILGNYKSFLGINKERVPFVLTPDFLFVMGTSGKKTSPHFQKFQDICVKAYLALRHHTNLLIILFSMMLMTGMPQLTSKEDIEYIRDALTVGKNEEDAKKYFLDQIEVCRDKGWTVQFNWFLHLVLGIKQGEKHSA

Consider `O=C1NC(=O)/C(=C/c2ccc3c(c2)OCO3)S1` [Example 1, (5Z)-5-(1,3-benzodioxol-5-ylmethylene)-1,3-thiazolidine-2,4-dione], for which the inhibition at 10 µM in assay [1] turned out to be 80%. At PI3Kγ, the negative-log IC50 (pIC50) is 7.30. Consider `O=C1NC(=S)S/C1=C/c1ccc2c(c1)OCO2` [Example 2, (5E)-5-(1,3-benzodioxol-5-ylmethylene)-2-thioxo-1,3-thiazolidin-4-one], for which the inhibition at 10 µM in assay [1] was found to be 80%. Moreover, the pIC50 at PI3Kγ was 7.22. On to `O=C1NC(=O)/C(=C/c2ccc3c(c2)CCO3)S1` [Example 4, (5Z)-5-(2,3-dihydro-1-benzofuran-5-ylmethylene)-1,3-thiazolidine-2,4-dione], for which the inhibition at 10 µM in assay [1] stood at 80%. As to `CN1C(=O)COc2ccc(/C=C3\SC(=O)NC3=O)cc21` [Example 10, (5Z)-5-[(4-methyl-3-oxo-3,4-dihydro-2H-1,4-benzoxazin-6-yl)methylene]-1,3-thiazolidine-2,4-dione], the pIC50 on PI3Kγ is 7.52.

Broadly, the inhibition is the share of the control response that was lost under treatment. The pIC50 is −log10 of the IC50, conventionally taken in molar units.
